Values quoted from earlier work in patent US20050003341A1, “Drug discovery assays based on the biology of atherosclerosis, cancer, and alopecia” (priority 2003, published 2005).
Read-outs that look alike come from different tables or passages of the source.

Legend:
[1] = tested on: ERK
[2] = tested on: papilla cells; details: 14 days; testosterone 345 nM, DHT 345 mM as printed
[3] = tested on: TF; details: THP-1
[4] = tested on: TF; details: Western blotting; untreated smokers 2.3±0.7
[5] = tested on: leukocytes; details: 0.1 and 1 mM, similar in vitro assay
[6] = tested on: leukocytes; details: 5-20 mg/kg/day, oral
[7] = tested on: TF; details: mononuclear leukocytes exposed to endotoxin
[8] = tested on: TF; details: cultured monocytes
[9] = tested on: ACE; details: zofenopril 0.05 or 1, captopril 5, enalapril 0.5 mg/kg/day
[10] = tested on: hamsters
[11] = tested on: ACE; details: after 6 weeks
[12] = tested on: Moloney murine leukemia virus (MMuLV); Rous sarcoma virus (RSV); details: chick embryo fibroblasts
[13] = tested on: AR mRNA; details: 50 μg/ml, 4 hours
[14] = tested on: ACE; details: 5 mg/day vs placebo, 4 years
[15] = tested on: TF antigen; details: starting on day 3, significant on day 28
[16] = tested on: ACE
[17] = tested on: ACE; details: 5 or 10 mg/day vs placebo, 4 years
[18] = tested on: ACE; remark: listed apart in the source
[19] = tested on: TF mRNA; details: obese mice, 10 to 20 weeks of age
[20] = tested on: AR mRNA; details: LNCaP cells (Lin 2001)
[21] = tested on: CD40; details: concentration- and time-dependent

Molecule: C[C@]12CC[C@H]3[C@@H](CCC4=CC(=O)CC[C@@]43C)[C@@H]1CC[C@@H]2O [Testosterone, testosterone]
- ERK phosphorylation ([1]; a variety of cells, cited studies): increase
- papilla cell proliferation [2]: significantly decreased

Molecule: CC(=O)Oc1ccccc1C(=O)O [aspirin, Acetylsalicylic Acid]
- LPS-induced translocation of c-Rel/p65 [3]: inhibited
- increase in TF concentration compared to non-smoker mice [4]: 1.3±0.17 fold
- migration of human lymphocytes [5]: stimulated migration
- increase in leukocyte migration relative to control values [6]: 20-70%

Molecule: C[C@H](CS)C(=O)N1CCC[C@H]1C(=O)O [captopril]
- increase in TF mRNA [7]: inhibited
- TF antigen and mRNA [8]: decreased
- total lesion area compared to placebo [9]: significantly decreased
- cell size of macrophage derived foam cells ([10]; controls 130±5): did not change
- heart rate ([10]; controls 376±6): 348+6 beats/min
- decrease in fatty streak area ([10]; p=0.092 pravastatin, p=0.056 captopril): 35%
- number of subendothelial macrophage derived foam cells ([11]; week 4: 87±9, p<0.05): 52±9 cell/mm^2
- average size of a foam cell ([11]; week 4: 113±8, p<0.05): 89±5 μm^2
- area of fatty streak ([11]; week 4: 125±18, p<0.05): 55±12 μm2×1,000
- area of extracellular lipid particles ([11]; week 4: 144±27, not significant): 157±36 μm2×1,000

Molecule: C/C=C/C/C=C/CCC(=O)[C@H]1O[C@H]1C(N)=O [cerulenin]
- Rous sarcoma virus (RSV) production [12]: inhibited

Molecule: C[C@@H]1C[C@@H]([C@H](O)CC2CC(=O)NC(=O)C2)C(=O)[C@@H](C)C1 [cycloheximide]
- increase in AR mRNA [13]: 1.7 ± 0.4 fold

Molecule: CCOC(=O)[C@H](CCc1ccccc1)N[C@@H](C)C(=O)N1CCC[C@H]1C(=O)O [enalapril]
- total lesion area compared to placebo [9]: no significant decrease
- changes in mean absolute diameter, minimum absolute diameter, percent diameter stenosis [14]: no significant difference

Molecule: CCCCc1nc(Cl)c(CO)n1Cc1ccc(-c2ccccc2-c2nn[nH]n2)cc1 [losartan]
- effect on plasma TF antigen levels [15]: negative effect

Molecule: CCOC(=O)[C@H](CCc1ccccc1)N[C@@H](C)C(=O)N1[C@H](C(=O)O)C[C@@H]2CCC[C@@H]21 [ramipril]
- rate of death from cardiovascular causes ([16]; 10 mg/day, 4.5 years, placebo 8.1%): 6.1%
- rate of cardiac arrest ([16]; placebo 1.3%): 0.8%
- rate of stroke ([16]; placebo 4.9%): 3.4%
- rate of complications related to diabetes ([16]; placebo 7.6%): 6.4%
- rate of heart failure ([16]; placebo 11.6%): 9.1%
- rate of death from any cause ([16]; placebo 12.2%): 10.4%
- rate of myocardial infarction ([16]; placebo 12.3%): 9.9%
- rate of revascularization procedures ([16]; placebo 18.8%): 16.3%
- RR, cardiac arrest ([16]; vs placebo): 0.62
- RR, complications related to diabetes ([16]; vs placebo): 0.84
- RR, death from any cause ([16]; vs placebo): 0.84
- RR, death from cardiovascular causes ([16]; vs placebo): 0.74
- RR, heart failure ([16]; vs placebo): 0.77
- RR, myocardial infarction ([16]; vs placebo): 0.80
- RR, revascularization procedures ([16]; vs placebo): 0.85
- RR, stroke ([16]; vs placebo): 0.68
- changes in thickness of the common carotid artery wall, or carotid plaque height [17]: no significant difference
- progression slope of the mean maximum carotid intimal medial thickness (IMT) ([18]; 10 mg/day, placebo 0.0217±0.0027, p=0.0033): 0.0137±0.0024 mm/year
- decrease in progression of carotid intima media thickness ([18]; at 4.5 years): 0.008 mm per year

Molecule: CCOC(=O)[C@H](CCc1ccccc1)N[C@H]1CS[C@H](c2cccs2)CN(CC(=O)O)C1=O [temocapril]
- increase in TF mRNA [19]: attenuated

Molecule: IL-6: interleukin 6
- ERK phosphorylation ([1]; LNCaP cells (Chen T 1999)): increased
- AR mRNA [20]: decreased

B1: CD40L: ligand of CD40, native or recombinant human (protein, UniProt P29965 113-261, looked up)
CD40 ligand, soluble form: MQKGDQNPQIAAHVISEASSKTTSVLQWAEKGYYTMSNNLVTLENGKQLTVKRQGLYYIYAQVTFCSNREASSQAPFIASLCLKSPGRFERILLRAANTHSSAKPCGQQSIHLGGVFELQPGASVFVNVTDPSQVSHGTGFTSFGLLKL
- TF expression on the surface of cultured human vascular SMC [21]: transient increase
